Results published in US20180243304A1, “PHARMACEUTICAL COMBINATIONS COMPRISING (A) THE CYCLIN DEPENDENT KINASE 4/6 (CDK4/6) INHIBITOR LEE011 (=RIBOCICLIB), AND (B) THE EPIDERMAL GROWTH FACTOR RECEPTOR (EGFR) INHIBITOR ERLOTINIB, FOR THE TREATMENT OR PREVENTION OF CANCER” (Novartis AG, priority 2015, published 2018).

Assays:
[1] = test system: LoVo; test: Cell proliferation (cell count by microscopy), LoVo; format: cell-based; conditions: Homo sapiens; LoVo (KRAS), 96 h treatment, single agent tested 13 nM-10 μM; 50% of cell counts relative to DMSO
Description: (§1) The debris counts were subtracted from raw nuclei counts.
(§2) The model input were inhibition values per drug dose: […]

[2] = test system: GP2d; test: Cell proliferation (cell count by microscopy), GP2d; format: cell-based; conditions: GP2d (KRAS, PIK3CA), 72 h treatment, single agent tested 13 nM-10 μM; 50% of cell counts relative to DMSO
Description: as §1, §2

[3] = test system: LS-180; test: Cell proliferation (cell count by microscopy), LS-180; format: cell-based; conditions: Homo sapiens, LS180; LS-180 (KRAS, PIK3CA), 72 h treatment, single agent tested 13 nM-10 μM; 50% of cell counts relative to DMSO
Description: as §1, §2

[4] = test system: DLD-1; test: Cell proliferation (cell count by microscopy), DLD-1; format: cell-based; conditions: Homo sapiens; DLD-1 (KRAS, PIK3CA), 72 h treatment, single agent tested 13 nM-10 μM; 50% of cell counts relative to DMSO
Description: as §1, §2

[5] = test system: COLO-320; test: Cell proliferation (cell count by microscopy), COLO-320; format: cell-based; conditions: Homo sapiens; COLO-320 (no driver mutation listed), 72 h treatment, single agent tested 13 nM-10 μM; 50% of cell counts relative to DMSO
Description: as §1, §2

[6] = test system: SW837; test: Cell proliferation (cell count by microscopy), SW837; format: cell-based; conditions: Homo sapiens; SW837 (KRAS), 72 h treatment, single agent tested 13 nM-10 μM; 50% of cell counts relative to DMSO
Description: as §1, §2

[7] = test system: SW480; test: Cell proliferation (cell count by microscopy), SW480; format: cell-based; conditions: Homo sapiens; SW480 (KRAS), 72 h treatment, single agent tested 13 nM-10 μM; 50% of cell counts relative to DMSO
Description: as §1, §2

[8] = test system: HCT-116; test: Cell proliferation (cell count by microscopy), HCT-116; format: cell-based; conditions: Homo sapiens; HCT-116 (KRAS, PIK3CA), 72 h treatment, single agent tested 13 nM-10 μM; 50% of cell counts relative to DMSO
Description: as §1, §2

[9] = test system: LIM2551; test: Cell proliferation (cell count by microscopy), LIM2551; format: cell-based; conditions: LIM2551 (BRAF, PIK3CA), 72 h treatment, single agent tested 13 nM-10 μM; 50% of cell counts relative to DMSO
Description: as §1, §2

[10] = test system: COLO-205; test: Cell proliferation (cell count by microscopy), COLO-205; format: cell-based; conditions: Homo sapiens; COLO-205 (BRAF), 72 h treatment, single agent tested 13 nM-10 μM; 50% of cell counts relative to DMSO
Description: as §1, §2

[11] = test system: HT-29; test: Cell proliferation (cell count by microscopy), HT-29; format: cell-based; conditions: Homo sapiens; HT-29 (BRAF, PIK3CA), 72 h treatment, single agent tested 13 nM-10 μM; 50% of cell counts relative to DMSO
Description: as §1, §2

[12] = test system: RKO; test: Cell proliferation (cell count by microscopy), RKO; format: cell-based; conditions: Homo sapiens; RKO (BRAF, PIK3CA), 72 h treatment, single agent tested 13 nM-10 μM; 50% of cell counts relative to DMSO
Description: as §1, §2

[13] = test system: OUMS-23; test: Cell proliferation (cell count by microscopy), OUMS-23; format: cell-based; conditions: OUMS-23 (BRAF), 72 h treatment, single agent tested 13 nM-10 μM; 50% of cell counts relative to DMSO
Description: as §1, §2

[14] = test system: LS411N; test: Cell proliferation (cell count by microscopy), LS411N; format: cell-based; conditions: Homo sapiens, LS-411N; LS411N (BRAF), 72 h treatment, single agent tested 13 nM-10 μM; 50% of cell counts relative to DMSO
Description: as §1, §2

[15] = test system: 15 colorectal cancer cell lines; conditions: single agent, 13 nM-10 μM
Description: The compounds were dissolved in 100% DMSO (Sigma, Catalog number D2650) at concentrations of 20 mM and stored at -20° C. until use.
All cell line media were supplemented with 10% FBS (HyClone, Catalog number SH30071.03).
Cell lines were cultured in 37° C. and 5% CO2 incubator and expanded in T-75 flasks. In all cases cells were thawed from frozen stocks, expanded through ≤1 passage using 1:3 dilutions, counted and assessed for viability using a ViCell counter (Beckman-Coulter) prior to plating. […] All cell lines were determined to be free of mycoplasma contamination as determined by a PCR detection methodology performed at Idexx Radil (Columbia, Mo., USA) and correctly identified by detection of a panel of SNPs.
The compound's effect on cell proliferation was calculated from the cell counts of the treatments relative to the cell counts of the negative control (DMSO), in FIG. 1 denoted as ‘Normalized cell count’ (=‘xnorm’) on the y-axis. […] The model input were inhibition values per drug dose:
I=1-xnorm • I: Inhibition • xnorm: normalized cell count (median of three replicates) […]
C=ΣConc(Idata*(Idata−Imodel)) • Idata: measured inhibition • Imodel: inhibition according to HSA null hypothesis
Robust combination z-scores (zC) were calculated as the ratio of the treatments' combination scores C and the median absolute deviation (mad) of non-interacting combinations: […]

Structure (SMILES): C#Cc1cccc(Nc2ncnc3cc(OCCOC)c(OCCOC)cc23)c1 [Erlotinib, N-(3-ethynylphenyl)-6,7-bis(2-methoxyethoxy)quinazolin-4-amine]
- IC50 [1]: 0.716 µM
- IC50 [2]: 8.86 µM
- IC50 [3]: > 10 µM
- IC50 [4]: 7.06 µM
- IC50 [5]: 6.92 µM
- IC50 [6]: > 10 µM
- IC50 [7]: > 10 µM
- IC50 [8]: > 10 µM
- IC50 [9]: > 10 µM
- IC50 [10]: > 10 µM
- IC50 [11]: > 10 µM
- IC50 [12]: > 10 µM
- IC50 [13]: > 10 µM
- IC50 [14]: > 10 µM
- cell lines in which IC50s were achieved for the concentration range tested [15]: 5/15
